Experimental data reported in patent US8754071B2 (priority 2011, dated 2014).

Target: T1, c-kit (Homo sapiens, UniProt P10721)
T1 construct: human Mo7e cells which endogenously express c-kit; endogenous in cells; host or cells: human Mo7e cells (promegakaryocytic leukemia line), stimulated with human recombinant SCF
Test: Mo7e cell proliferation assay (SCF dependent proliferation)
Type: cell-based
Conditions: Table 2; human Mo7e cells stimulated with SCF, 48 hours, CellTiter Glo; 1% FBS; read-out: c-kit (Mo7e)
How it was run: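 Human Mo7e cells with endogenous c-kit, proliferation driven by SCF, 384-well format. After 48 h at 37 °C viability read by CellTiter-Glo luminescence. IC50 taken as concentration giving response halfway between baseline and maximum.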

T1 sequence (P10721 26-976): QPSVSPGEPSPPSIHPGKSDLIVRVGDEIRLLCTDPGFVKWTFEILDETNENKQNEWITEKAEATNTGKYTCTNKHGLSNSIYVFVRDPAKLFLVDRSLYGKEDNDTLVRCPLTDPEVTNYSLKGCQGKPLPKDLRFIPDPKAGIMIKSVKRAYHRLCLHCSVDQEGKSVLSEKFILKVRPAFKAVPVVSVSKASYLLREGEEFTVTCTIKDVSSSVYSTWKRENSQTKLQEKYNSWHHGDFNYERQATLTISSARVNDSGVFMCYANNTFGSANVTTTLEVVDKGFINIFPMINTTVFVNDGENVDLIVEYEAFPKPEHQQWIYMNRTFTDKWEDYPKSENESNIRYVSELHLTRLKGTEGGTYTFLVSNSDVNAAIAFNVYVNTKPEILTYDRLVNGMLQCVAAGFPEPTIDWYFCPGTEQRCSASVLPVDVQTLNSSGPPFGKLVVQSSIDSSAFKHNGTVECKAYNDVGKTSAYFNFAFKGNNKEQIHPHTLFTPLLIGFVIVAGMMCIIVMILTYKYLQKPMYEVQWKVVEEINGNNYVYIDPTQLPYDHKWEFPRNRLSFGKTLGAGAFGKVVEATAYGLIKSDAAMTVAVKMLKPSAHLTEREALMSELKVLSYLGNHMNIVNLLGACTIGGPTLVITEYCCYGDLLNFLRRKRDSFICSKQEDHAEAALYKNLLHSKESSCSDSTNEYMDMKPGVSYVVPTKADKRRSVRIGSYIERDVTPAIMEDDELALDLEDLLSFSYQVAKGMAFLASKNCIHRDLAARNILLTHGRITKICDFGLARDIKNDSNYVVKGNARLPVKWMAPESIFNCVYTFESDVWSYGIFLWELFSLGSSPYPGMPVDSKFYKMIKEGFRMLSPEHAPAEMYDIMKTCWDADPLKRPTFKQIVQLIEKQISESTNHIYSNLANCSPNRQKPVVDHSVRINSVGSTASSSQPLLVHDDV

IC50 [µM]	Compound
0.718	Cc1ccc(-c2noc(C3CN(C(=O)OCCO)C3)n2)cc1NC(=O)c1cnc2ccccn12 [F150]
0.357	COC(=O)N1CC[C@H]1c1nc(-c2ccc(C)c(NC(=O)c3cnc4ccccn34)c2)no1 [F151]
0.738	CC(=O)N1CC[C@H]1c1nc(-c2ccc(C)c(NC(=O)c3cnc4ccccn34)c2)no1 [F152]
0.997	CC(C)(C)OC(=O)N1CC(c2nc(-c3ccc(F)c(NC(=O)c4cnc5ccccn45)c3)no2)C1 [F153]
0.472	CS(=O)(=O)N1CC(c2nc(-c3ccc(F)c(NC(=O)c4cnc5ccccn45)c3)no2)C1 [F154]
0.12	CCS(=O)(=O)N1CC(c2nc(-c3ccc(F)c(NC(=O)c4cnc5ccccn45)c3)no2)C1 [F155]
0.124	CCCS(=O)(=O)N1CC(c2nc(-c3ccc(F)c(NC(=O)c4cnc5ccccn45)c3)no2)C1 [F156]
0.153	Cc1ccc(-c2noc(C3CN(S(=O)(=O)c4cccnc4)C3)n2)cc1NC(=O)c1cnc2ccccn12 [F157]
0.527	Cc1ccc(-c2noc(C3CN(S(=O)(=O)c4ccn(C)n4)C3)n2)cc1NC(=O)c1cnc2ccccn12 [F158]
0.157	Cc1ccc(-c2noc(C3CN(S(=O)(=O)C4CCOC4)C3)n2)cc1NC(=O)c1cnc2ccccn12 (stereo not shown) [F159]
0.38	Cc1ccc(-c2noc(C3CN(S(=O)(=O)C4CCOCC4)C3)n2)cc1NC(=O)c1cnc2ccccn12 [F160]
0.145	COC(=O)CCS(=O)(=O)N1CC(c2nc(-c3ccc(C)c(NC(=O)c4cnc5ccccn45)c3)no2)C1 [F161]
0.249	Cc1ccc(-c2noc(C3CN(S(=O)(=O)C4CCN(C(=O)OC(C)(C)C)C4)C3)n2)cc1NC(=O)c1cnc2ccccn12 (stereo not shown) [F162]
0.185	Cc1ccc(-c2noc(C3CN(S(=O)(=O)C4CCN(C(=O)OC(C)(C)C)CC4)C3)n2)cc1NC(=O)c1cnc2ccccn12 [F163]
0.269	COC(=O)N1CCOC[C@H]1c1nc(-c2ccc(C)c(NC(=O)c3cnc4ccccn34)c2)no1 [F164]
0.362	Cc1ccc(-c2noc([C@@H]3COCCN3S(C)(=O)=O)n2)cc1NC(=O)c1cnc2ccccn12 [F165]
0.163	COC(=O)N1CCOC[C@@H]1c1nc(-c2ccc(C)c(NC(=O)c3cnc4ccccn34)c2)no1 [F166]
0.102	Cc1ccc(-c2noc([C@H]3COCCN3S(C)(=O)=O)n2)cc1NC(=O)c1cnc2ccccn12 [F167]
0.358	CC(=O)N1CCOC[C@@H]1c1nc(-c2ccc(C)c(NC(=O)c3cnc4ccccn34)c2)no1 [F168]
0.132	COC(=O)N1CCC(c2nc(-c3ccc(C)c(NC(=O)c4cnc5ccccn45)c3)no2)C1 (stereo not shown) [F169]

IC50 [µM]	Compound
0.137	Cc1ccc(-c2noc(C3CCN(S(C)(=O)=O)C3)n2)cc1NC(=O)c1cnc2ccccn12 (stereo not shown) [F170]
0.24	CC(=O)N1CCC(c2nc(-c3ccc(C)c(NC(=O)c4cnc5ccccn45)c3)no2)C1 (stereo not shown) [F171]
0.122	COC(=O)N1CC(F)(F)C[C@H]1c1nc(-c2ccc(C)c(NC(=O)c3cnc4ccccn34)c2)no1 [F172]
0.212	CC(=O)N1CC(F)(F)C[C@H]1c1nc(-c2ccc(C)c(NC(=O)c3cnc4ccccn34)c2)no1 [F173]
0.831	Cc1ccc(-c2noc(C3CN(C(=O)N(C)C)C3)n2)cc1NC(=O)c1cnc2ccccn12 [F174]
0.728	Cc1ccc(-c2noc(C3CN(C(=O)OC(C)(C)C)CCO3)n2)cc1NC(=O)c1cnc2ccccn12 (stereo not shown) [F175]
0.452	Cc1ccc(-c2noc([C@@H]3CCCN3C(=O)OC(C)(C)C)n2)cc1NC(=O)c1cnc2ccccn12 [F176]
0.398	COC(=O)N1CC(Cc2nc(-c3ccc(C)c(NC(=O)c4cnc5ccccn45)c3)no2)C1 [F177]
0.476	Cc1ccc(-c2noc(CC3CN(S(C)(=O)=O)C3)n2)cc1NC(=O)c1cnc2ccccn12 [F178]
0.119	Cc1ccc(-c2noc(CCN3CC(F)(F)C3)n2)cc1NC(=O)c1cnc2ccccn12 [F179]
0.169	Cc1ccc(-c2noc(CCN3CCOCC3)n2)cc1NC(=O)c1cnc2ccccn12 [F180]
0.337	Cc1ccc(-c2noc(CN3CC(CO)C3)n2)cc1NC(=O)c1cnc2ccccn12 [F181]
0.259	COCC1CN(Cc2nc(-c3ccc(C)c(NC(=O)c4cnc5ccccn45)c3)no2)C1 [F182]
0.454	Cc1ccc(-c2noc(C(NC(=O)OC(C)(C)C)C3COC3)n2)cc1NC(=O)c1cnc2ccccn12 (stereo not shown) [F183]
0.496	Cc1ccc(-c2noc(C[C@@H]3CCN(C(=O)OC(C)(C)C)C3)n2)cc1NC(=O)c1cnc2ccccn12 [F184]
0.452	Cc1ccc(-c2noc(C[C@H]3CCN(C(=O)OC(C)(C)C)C3)n2)cc1NC(=O)c1cnc2ccccn12 [F185]
0.291	Cc1ccc(-c2noc([C@@H]3CCCN(C(=O)OC(C)(C)C)C3)n2)cc1NC(=O)c1cnc2ccccn12 [F186]
0.32	Cc1ccc(-c2noc([C@H]3CCCN(C(=O)OC(C)(C)C)C3)n2)cc1NC(=O)c1cnc2ccccn12 [F187]
0.399	Cc1ccc(-c2noc(C3CNCCO3)n2)cc1NC(=O)c1cnc2ccccn12 (stereo not shown) [F188]
0.824	Cc1ccc(-c2noc([C@H]3CNCCO3)n2)cc1NC(=O)c1cnc2ccccn12 [F189]

IC50 [µM]	Compound
0.476	Cc1ccc(-c2noc([C@@H]3CCCN3)n2)cc1NC(=O)c1cnc2ccccn12 [F190]
0.465	Cc1ccc(-c2noc([C@@H]3CCC(=O)N3)n2)cc1NC(=O)c1cnc2ccccn12 [F191]
0.672	Cc1ccc(-c2noc(C3CCC(=O)N3)n2)cc1NC(=O)c1cnc2ccccn12 (stereo not shown) [F192]
0.354	CC(=O)N1CCC(c2nc(-c3ccc(C)c(NC(=O)c4cnc5ccccn45)c3)no2)CC1 [F193]
0.105	COC(=O)N1CCOC(c2nc(-c3ccc(C)c(NC(=O)c4cnc5ccccn45)c3)no2)C1 (stereo not shown) [F194]
0.566	CC(=O)N1CCOC(c2nc(-c3ccc(C)c(NC(=O)c4cnc5ccccn45)c3)no2)C1 (stereo not shown) [F195]
0.475	COC(=O)N1CCC[C@H]1c1nc(-c2ccc(C)c(NC(=O)c3cnc4ccccn34)c2)no1 [F196]
0.46	CC(=O)N1CCC[C@H]1c1nc(-c2ccc(C)c(NC(=O)c3cnc4ccccn34)c2)no1 [F197]
0.142	COC(=O)N1CCO[C@@H](c2nc(-c3ccc(C)c(NC(=O)c4cnc5ccccn45)c3)no2)C1 [F198]
0.509	CC(=O)N1CCO[C@@H](c2nc(-c3ccc(C)c(NC(=O)c4cnc5ccccn45)c3)no2)C1 [F199]
0.395	Cc1ccc(-c2noc([C@H]3CCCN3)n2)cc1NC(=O)c1cnc2ccccn12 [F200]
0.443	COC(=O)N1CC(c2nc(-c3ccc(F)c(NC(=O)c4cnc5ccccn45)c3)no2)C1 [F201]
0.208	Cc1ccc(-c2noc([C@@H]3CCN3C(=O)OC3(C)CC3)n2)cc1NC(=O)c1cnc2ccccn12 [F202]
0.826	Cc1ccc(-c2noc([C@@H]3CCCNC3)n2)cc1NC(=O)c1cnc2ccccn12 [F203]
0.2	COC(=O)N1CC[C@@H](Cc2nc(-c3ccc(C)c(NC(=O)c4cnc5ccccn45)c3)no2)C1 [F204]
0.284	COC(=O)N1CC[C@H](Cc2nc(-c3ccc(C)c(NC(=O)c4cnc5ccccn45)c3)no2)C1 [F205]
0.169	Cc1ccc(-c2noc(C[C@H]3CCN(S(C)(=O)=O)C3)n2)cc1NC(=O)c1cnc2ccccn12 [F206]
0.141	COC(=O)N1CCC[C@@H](c2nc(-c3ccc(C)c(NC(=O)c4cnc5ccccn45)c3)no2)C1 [F207]
